# Experiments:
# [1] = cited from earlier work
# [2] = human, in vivo; cited from earlier work
# [3] = tested on: rabbit VX2 carcinoma and rat 9L gliosarcoma; details: implanted intracerebral tumors; cited from earlier work
# copper [4] = details: at a cupruresis of 2-3 mg
# copper [5] = details: cited from earlier work
# copper absorption = details: cited from earlier work
# [6] = therapeutic dose 1,000-2,000 mg/day
smiles,measurement,setting,value
"[Mo] [Mo, molybdenum]",efficacy,[1]; 5-20 mg/kg/day of Mo for 4-11 months,not effective
same,toxicity,[1]; 350 to 1400 mg/day (5-20 mg/kg/day) of Mo for 4-11 months,without known toxicity
CC(C)(S)[C@@H](N)C(=O)O [penicillamine],patients developing an initial hypersensitivity syndrome,[2],a quarter to a third of patients
same,survival,[3],did not show improved survival over untreated controls
NCCNCCNCCN [trientine],negative copper balance,copper [4],1.5 to 2.5 mg/day
same,patients with proteinuria,copper [5]; after several weeks of use,about 20 % of patients
same,cupruresis after the first few weeks of therapy,copper [5]; [6],2 to 3 mg
same,"cupruresis, initial",copper [5]; [6],4 to 5 mg
[Zn] [zinc],toxicity,"copper absorption; 150 mg daily, 200 Wilson's disease patients",no toxicity at all
same,"copper balance, average",copper absorption; at the two week point,−0.35 mg daily
same,time to bring urine copper and nonceruloplasmin plasma copper down to subtoxic levels,"copper absorption; human, in vivo",as long as six months
same,time to intestinal metallothionein induction and a negative copper balance,"copper absorption; human, in vivo",approximately two weeks
